Drawing on publication PMC6792352, “Limited Chemical Structural Diversity Found to Modulate Thyroid Hormone Receptor in the Tox21 Chemical Library” (Environmental Health Perspectives, 2019), this text covers CC50 for 76 compounds.

The data set can be described thus: in vitro. Conditions: rat, gh3-tre-luc cells.

SMILES strings stand for the structures. Structures can show the parent of a compound that is named as a salt.

For the compound `CC(=O)OC(C)OC(C)=O` [1,1-Ethanediol diacetate], the CC50 at 24 h (AC50 (uM) modified / 1000) is above 90 µM. On the same count and under the same terms, the result for `C=CC[N@@+]12CC[C@@]34c5ccccc5N5/C=C6/[C@H]7C[C@H]8[C@@]9(CC[N@@+]8(CC=C)C/C7=C/CO)c7ccccc7N(/C=C(/[C@@H](C[C@@H]31)/C(=C\CO)C2)[C@H]54)[C@@H]69` [Alcuronium chloride] reads above 20 µM; that for `CCOC(=O)NCCOc1ccc(Oc2ccccc2)cc1` [Fenoxycarb], above 90 µM; that for `Nc1c(Cl)cc(Cl)cc1Cl` [2,4,6-Trichloroaniline], above 90 µM. Compound `CCCCCCCC[N+](CCCCCCCC)(CCCCCCCC)CCCCCCCC` [Tetra-N-octylammonium bromide] had a CC50 at 24 h (AC50 (uM) modified / 1000) of 2.56 µM. On the same count and under the same terms, the result for `CC(C)CCCCCOC(=O)CS` [Isooctyl 2-mercaptoacetate] reads above 90 µM. Still for that read-out and setting: next, `CC(CO)c1ccccc1` (centres unmarked) [2-Phenylpropan-1-ol]: above 90 µM. Take `C[Si](C)(C)C` [Tetramethylsilane]: where the note is “AC50 (uM) modified / 1000”, the CC50 at 24 h was above 90 µM. Same read-out and setting: the result for `C=CCc1ccccc1O` [2-Allylphenol] reads above 90 µM; that for `O=S(=O)(c1ccc(Cl)cc1)c1ccc(Cl)cc1` [4,4'-Dichlorodiphenyl sulfone], above 90 µM; that for `CC(=O)OCC(=O)[C@@]1(O)CC[C@H]2[C@@H]3CCC4=CC(=O)CC[C@]4(C)[C@H]3[C@@H](O)C[C@@]21C` [Hydrocortisone acetate], above 50 µM. As to `CCOC(=O)C(Br)c1ccccc1` (centres unmarked) [Ethyl bromophenylacetate], the CC50 at 24 h (AC50 (uM) modified / 1000) is above 90 µM. Where the note is “AC50 (uM) modified / 1000”, `Cc1c(N)cccc1Cl` [3-Chloro-2-methylaniline] came in with a CC50 at 24 h above 90 µM. Turning to `COCN(COC)c1nc(N(COC)COC)nc(N(COC)COC)n1` [Hexa(methoxymethyl)melamine], the CC50 at 24 h (AC50 (uM) modified / 1000) is above 90 µM. `Clc1ccc(Cn2c(CN3CCCC3)nc3ccccc32)cc1` [Clemizole hydrochloride]: the CC50 at 24 h (AC50 (uM) modified / 1000) is above 20 µM. In turn, `O=c1[nH]nc(-c2ccc([N+](=O)[O-])o2)o1` [5-(5-Nitro-2-furyl)-1,3,4-oxadiazole-2-ol] displayed a cytotoxic concentration (CC50) at 24 h (AC50 (uM) modified / 1000) of 67.5 µM.

Turning to `Cc1cc(O)c(C(C)(C)C)cc1Sc1cc(C(C)(C)C)c(O)cc1C` [4,4'-Thiobis(6-tert-butyl-m-cresol)], it took 3.64 µM to reach half-maximal cytotoxicity (AC50 (uM) modified / 1000) (CC50 at 24 h). The compound `CCOC(=O)C(C)Oc1ccc(Oc2nc3ccc(Cl)cc3o2)cc1` (centres unmarked) [Fenoxaprop-ethyl] registered a CC50 at 24 h (AC50 (uM) modified / 1000) above 90 µM. The same measure, in the same setting: the result for `Cc1c(F)c(N2CCNC(C)C2)cc2c1c(=O)c(C(=O)O)cn2C1CC1` (centres unmarked) [Grepafloxacin hydrochloride] reads above 50 µM. The same measure, in the same setting: the result for `O=C1[C@H]2CCCC[C@H]2C(=O)N1CCCCN1CCN(c2nsc3ccccc23)CC1` [Perospirone hydrochloride] reads 21 µM. The same measure, in the same setting: next, `CC(=O)N[C@@H](Cc1ccc(O)cc1)C(=O)O` [N-Acetyl-L-tyrosine]: above 50 µM; `O=C(O)c1cccc(C(F)(F)F)c1` [3-(Trifluoromethyl)benzoic acid]: above 90 µM; `COc1ccc2c(c1)c(CC(=O)OCC(=O)O)c(C)n2C(=O)c1ccc(Cl)cc1` [Acemetacin]: above 50 µM. Turning to `O=C(OCc1ccccc1)c1cccnc1` [Benzyl nicotinate], the CC50 at 24 h (AC50 (uM) modified / 1000) is above 50 µM.

For the setting “AC50 (uM) modified / 1000”, `CC(O)CNCC(C)O` (centres unmarked) [Diisopropanolamine] yielded a CC50 at 24 h above 90 µM. On the same count and under the same terms, next, `C#CCN[C@@H]1CCc2ccccc21` [Rasagiline mesylate]: above 50 µM.

The compound `NC(=O)NC(=O)Cc1ccccc1` [Phenacemide] yielded a half-maximal cytotoxic concentration (CC50) at 24 h (AC50 (uM) modified / 1000) above 50 µM. The same measure, in the same setting: next, `CC(C)(C)S` [2-Methyl-2-propanethiol]: above 90 µM. The same measure, in the same setting: next, `Cc1ccc(C(C)C)cc2c(C)ccc1-2` [Guaiazulene]: above 50 µM; `NCCCN1CCOCC1` [4-Morpholinepropanamine]: above 90 µM. In the case of `CCOP(=S)(OCC)Oc1ccc2c(C)c(Cl)c(=O)oc2c1` [Coumaphos], the CC50 at 24 h is, setting by setting: (AC50 (uM) modified / 1000, Tox21_110001=Tox21_111290, viability, 1 nM T3 present, 24 h) above 50 µM; (AC50 (uM) modified / 1000, Tox21_110001=Tox21_201841, viability, 1 nM T3 present, 24 h) above 90 µM. Compound `COC(=O)OC` [Dimethyl carbonate] gave a CC50 at 24 h (AC50 (uM) modified / 1000) above 90 µM. On the same count and under the same terms, next, `CC[N+](CC)(CC(=O)Nc1c(C)cccc1C)Cc1ccccc1` [Denatonium benzoate]: above 50 µM. The same measure, in the same setting: the result for `CC1=C(C(=O)Nc2ccccc2)S(=O)(=O)CCO1` [Oxycarboxin] reads 40.7 µM; that for `CCC(NC(C)C)C(O)c1ccc(O)c(O)c1` (centres unmarked) [Isoetharine mesylate], above 50 µM; that for `C[N+]1(C)CCN(CC(O)(c2ccccc2)C2CCCCC2)CC1` (centres unmarked) [Hexocyclium], above 50 µM. The compound `Cc1c(O)c(=O)ccn1C` [Deferiprone] came in with a CC50 at 24 h (AC50 (uM) modified / 1000) above 50 µM. Same read-out and setting: the result for `O=S1(=O)CCCO1` [1,3-Propane sultone] reads above 90 µM.

As to `CCOC(=O)O[C@]1(C(=O)COC(=O)CC)CC[C@H]2[C@@H]3CCC4=CC(=O)C=C[C@]4(C)[C@H]3[C@@H](O)C[C@@]21C` [Prednicarbate], where the note is “AC50 (uM) modified / 1000”, the CC50 at 24 h is above 20 µM. For `NS(=O)(=O)c1cc(C(=O)O)cc(N2CCCC2)c1Oc1ccccc1` [Piretanide], for the setting “AC50 (uM) modified / 1000”, the half-maximal cytotoxic concentration (CC50) at 24 h was above 20 µM. Turning to `CC(C)CCCC(=O)O` [5-Methylhexanoic acid], the CC50 at 24 h (AC50 (uM) modified / 1000) was above 90 µM.

For `ClCOCCl` [bis(Chloromethyl) ether], the cytotoxic concentration (CC50) at 24 h (AC50 (uM) modified / 1000) is above 90 µM. Same read-out and setting: the result for `COc1ccc(-c2coc3cc(O)ccc3c2=O)cc1` [Formononetin] reads above 90 µM; that for `CCNc1nc(N)nc(Cl)n1` [Deisopropylatrazine], above 90 µM; that for `CCc1cccc(O)c1` [3-Ethylphenol], above 90 µM. The same measure, in the same setting: next, `c1cc2c(c(NC3=NCCN3)c1)CCCC2` [Tramazoline tosylate]: above 50 µM. On the same count and under the same terms, the result for `C[C@@H]1C[C@H]2[C@@H]3CCC4=CC(=O)C=C[C@]4(C)[C@@]3(F)[C@@H](O)C[C@]2(C)[C@@]1(O)C(=O)COC(=O)c1cccc(S(=O)(=O)O)c1` [Dexamethazone metasulfobenzoate sodium] reads above 50 µM. `[2H]C([2H])([2H])[C@H](N)Cc1ccccc1` [D-Amphetamine-d3 hemisulfate] registered a CC50 at 24 h (AC50 (uM) modified / 1000) above 50 µM. Same read-out and setting: next, `ClCc1ccc(Cl)cc1Cl` [2,4-Dichloro-1-(chloromethyl)benzene]: above 90 µM. In turn, `ClC1=C(Cl)C2(Cl)C3C(Cl)C(Cl)CC3C1(Cl)C2(Cl)Cl` (centres unmarked) [Technical chlordane] had a CC50 at 24 h (AC50 (uM) modified / 1000, Tox21_110001=Tox21_200290, viability, 1 nM T3 present, 24 h) of 27.8 µM. In turn, `O=C(/C=C/c1ccc(O)c(O)c1)O[C@@H]1C[C@](OC(=O)/C=C/c2ccc(O)c(O)c2)(C(=O)O)C[C@@H](O)[C@H]1O` [1,5-Dicaffeoylquinic acid] yielded a CC50 at 24 h (AC50 (uM) modified / 1000) above 50 µM.

For the setting “AC50 (uM) modified / 1000”, `CNc1ccc([N+](=O)[O-])cc1` [N-Methyl-4-nitroaniline] registered a CC50 at 24 h of 54.8 µM. On the same count and under the same terms, the result for `CCCN(CC)C(CC)C(=O)Nc1c(C)cccc1C` (centres unmarked) [Etidocaine] reads above 50 µM; that for `CCc1cccc(C)c1N` [2-Ethyl-6-methylaniline], above 90 µM; that for `CC1(C)CC(=O)CC(C)(C)N1` [2,2,6,6-Tetramethyl-4-piperidone], above 90 µM.

`CCCCCCCCCCCO` [1-Undecanol]: the cytotoxic concentration (CC50) at 24 h (AC50 (uM) modified / 1000) is above 90 µM. `CCC(C)(C)C1CCC(=O)CC1` [4-(tert-Pentyl)-cyclohexanone] had a CC50 at 24 h (AC50 (uM) modified / 1000) above 90 µM. On the same count and under the same terms, next, `CC(C)N1CCN(c2ccc(OC[C@H]3CO[C@](Cn4cncn4)(c4ccc(Cl)cc4Cl)O3)cc2)CC1` (racemic) [Terconazole]: 5.35 µM; `CC(=O)NC[C@H]1CN(c2ccc(N3CCOCC3)c(F)c2)C(=O)O1` [Linezolid]: above 50 µM.

`Cc1ccc([N+](=O)[O-])c(N)c1` [5-Methyl-2-nitroaniline] came in with a CC50 at 24 h (AC50 (uM) modified / 1000) above 90 µM. On the same count and under the same terms, next, `Cc1ccc(C)c2ccccc12` [1,4-Dimethylnaphthalene]: above 90 µM. Consider `Cc1nc(-c2ccccn2)ncc1C(=O)Nn1cc(C)c2cc(F)ccc21` [SAR102608], for which the CC50 at 24 h (AC50 (uM) modified / 1000) was above 90 µM. On the same count and under the same terms, the result for `O=C=Nc1ccc(Cc2ccc(N=C=O)cc2)cc1` [4,4'-Diphenylmethane diisocyanate] reads above 90 µM; that for `C=CCN=C=S` [Allyl isothiocyanate], above 90 µM; that for `C[C@@H]1O[C@@H](OC[C@H]2O[C@@H](Oc3c(-c4ccc(OCCO)c(OCCO)c4)oc4cc(OCCO)cc(O)c4c3=O)[C@H](O)[C@@H](O)[C@@H]2O)[C@H](O)[C@H](O)[C@H]1O` [Troxerutin], above 50 µM.

`CC[N+](C)(CC)CCOC(=O)C(O)(c1ccccc1)C1CCCCC1` (centres unmarked) [Oxyphenonium bromide] registered a CC50 at 24 h (AC50 (uM) modified / 1000) above 50 µM. Turning to `O=C(OCC(COC(=O)c1ccccc1)(COC(=O)c1ccccc1)COC(=O)c1ccccc1)c1ccccc1` [2,2-Bis[(benzoyloxy)methyl]dibenzoate propanediol], the 50% cytotoxic concentration (CC50) at 24 h (AC50 (uM) modified / 1000) was above 90 µM. Still for that read-out and setting: next, `CS(=O)(=O)O` [Methanesulfonic acid]: above 90 µM.

For the compound `O=C/C=C/c1ccccc1` [3-Phenylprop-2-enal], the CC50 at 24 h (AC50 (uM) modified / 1000) is above 90 µM.

For the compound `CC(=O)O[C@]1(C(C)=O)CC[C@H]2[C@@H]3C=C(Cl)C4=CC(=O)CC[C@]4(C)[C@H]3CC[C@@]21C` [Chlormadinone acetate], it took 90.1 µM to reach half-maximal cytotoxicity (AC50 (uM) modified / 1000) (CC50 at 24 h). Still for that read-out and setting: next, `O=C(c1ccccc1)C(O)c1ccccc1` (centres unmarked) [Benzoin]: above 90 µM; `Cc1ccc2c(c1)OCC(=O)CO2` [7-Methyl-2H-1,5-benzodioxepin-3(4H)-one]: above 90 µM. In the case of `O=C(O)CCCCCCCC(=O)O` [Nonanedioic acid], the CC50 at 24 h (AC50 (uM) modified / 1000) was above 90 µM.

Take `Cc1[nH]cnc1CN1CCc2c(c3ccccc3n2C)C1=O` [Alosetron hydrochloride]: the CC50 at 24 h (AC50 (uM) modified / 1000) was above 50 µM. The compound `CCCCCCCCCCCCCCCCCC(=O)OC[C@@H](O)[C@H]1OC[C@H](O)[C@H]1O` [Anhydrosorbitol stearate] came in with a cytotoxic concentration (CC50) at 24 h (AC50 (uM) modified / 1000) above 50 µM.

`CCCCS` [1-Butanethiol]: where the note is “AC50 (uM) modified / 1000”, the CC50 at 24 h was above 90 µM.

In general, CC50 refers to the concentration giving 50% cytotoxicity. A high value points to better tolerance by the cells.
